Measurements as given in the CheMixHub ionic liquid set.

Assay: xn = mol fraction of the nth substance listed
Conditions: 100 kPa

OC[C@H]1O[C@H](O[C@H]2[C@H](O)[C@@H](O)C(O)O[C@@H]2CO)[C@H](O)[C@@H](O)[C@@H]1O (stereo not given in full) + CCCC[n+]1ccn(C)c1.F[P-](F)(F)(F)(F)F + O
viscosity [mPa·s]
Conditions | 293.15 K | 298.15 K | 303.15 K | 308.15 K | 313.15 K
x2 = 0, x1 = 0.0001791 | 1.019 | 0.9 | 0.807 | 0.721 | 0.657
x2 = 0, x1 = 0.0005383 | 1.027 | 0.911 | 0.816 | 0.733 | 0.667
x2 = 0, x1 = 0.0008971 | 1.038 | 0.922 | 0.827 | 0.742 | 0.675
x2 = 0, x1 = 0.001255 | 1.049 | 0.931 | 0.832 | 0.747 | 0.68
x2 = 0, x1 = 0.001615 | 1.059 | 0.94 | 0.84 | 0.755 | 0.686
x2 = 0.0001835, x1 = 0.001259 | 1.059 | 0.947 | 0.86 | 0.775 | 0.69
x2 = 0.0001835, x1 = 0.00162 | 1.07 | 0.956 | 0.866 | 0.782 | 0.696
x2 = 0.0001836, x1 = 0.0008988 | 1.049 | 0.937 | 0.851 | 0.768 | 0.684
x2 = 0.0001837, x1 = 0.0001798 | 1.03 | 0.92 | 0.834 | 0.751 | 0.667
x2 = 0.0001837, x1 = 0.0005398 | 1.037 | 0.926 | 0.841 | 0.76 | 0.676
x2 = 0.0005376, x1 = 0.001627 | 1.084 | 0.97 | 0.873 | 0.783 | 0.709
x2 = 0.0005378, x1 = 0.001265 | 1.074 | 0.96 | 0.864 | 0.776 | 0.702
x2 = 0.000538, x1 = 0.0009039 | 1.064 | 0.949 | 0.856 | 0.769 | 0.695
x2 = 0.0005382, x1 = 0.0005419 | 1.052 | 0.939 | 0.846 | 0.76 | 0.688
x2 = 0.0005384, x1 = 0.0001809 | 1.043 | 0.93 | 0.837 | 0.752 | 0.68
x2 = 0.0008951, x1 = 0.001637 | 1.098 | 0.976 | 0.878 | 0.792 | 0.713
x2 = 0.0008955, x1 = 0.001273 | 1.089 | 0.967 | 0.869 | 0.784 | 0.707
x2 = 0.0008958, x1 = 0.0009101 | 1.08 | 0.959 | 0.861 | 0.778 | 0.701
x2 = 0.0008961, x1 = 0.0005458 | 1.064 | 0.946 | 0.851 | 0.768 | 0.693
x2 = 0.0008964, x1 = 0.0001816 | 1.057 | 0.938 | 0.842 | 0.761 | 0.685
x2 = 0.00126, x1 = 0.0009162 | 1.084 | 0.969 | 0.876 | 0.79 | 0.708
x2 = 0.00126, x1 = 0.001282 | 1.096 | 0.979 | 0.883 | 0.797 | 0.714
x2 = 0.00126, x1 = 0.001648 | 1.106 | 0.989 | 0.893 | 0.804 | 0.721
x2 = 0.001261, x1 = 0.000183 | 1.061 | 0.948 | 0.858 | 0.774 | 0.693
x2 = 0.001261, x1 = 0.0005491 | 1.071 | 0.959 | 0.866 | 0.781 | 0.7
